ChEMBL document CHEMBL5096151, “Phytocannabinoid Pharmacology: Medicinal Properties of Cannabis sativa Constituents Aside from the "Big Two"” (J Nat Prod, 2021)

Assays:
[1] = target: T1, Transient receptor potential cation channel subfamily V member 1 (Homo sapiens, UniProt Q8NER1); assay: Agonist activity at ionomycin-stimulated TRPV1 (unknown origin) activation assessed as efficacy relative to control
[2] = target: T1, Transient receptor potential cation channel subfamily V member 1; assay: Agonist activity at ionomycin-stimulated TRPV1 (unknown origin) channel desensitization in presence of capsaicin
[3] = target: T2, Transient receptor potential cation channel subfamily V member 2 (Homo sapiens, UniProt Q9Y5S1); assay: Agonist activity at ionomycin-stimulated TRPV2 (unknown origin) activation
T2 sequence (Q9Y5S1 whole entry): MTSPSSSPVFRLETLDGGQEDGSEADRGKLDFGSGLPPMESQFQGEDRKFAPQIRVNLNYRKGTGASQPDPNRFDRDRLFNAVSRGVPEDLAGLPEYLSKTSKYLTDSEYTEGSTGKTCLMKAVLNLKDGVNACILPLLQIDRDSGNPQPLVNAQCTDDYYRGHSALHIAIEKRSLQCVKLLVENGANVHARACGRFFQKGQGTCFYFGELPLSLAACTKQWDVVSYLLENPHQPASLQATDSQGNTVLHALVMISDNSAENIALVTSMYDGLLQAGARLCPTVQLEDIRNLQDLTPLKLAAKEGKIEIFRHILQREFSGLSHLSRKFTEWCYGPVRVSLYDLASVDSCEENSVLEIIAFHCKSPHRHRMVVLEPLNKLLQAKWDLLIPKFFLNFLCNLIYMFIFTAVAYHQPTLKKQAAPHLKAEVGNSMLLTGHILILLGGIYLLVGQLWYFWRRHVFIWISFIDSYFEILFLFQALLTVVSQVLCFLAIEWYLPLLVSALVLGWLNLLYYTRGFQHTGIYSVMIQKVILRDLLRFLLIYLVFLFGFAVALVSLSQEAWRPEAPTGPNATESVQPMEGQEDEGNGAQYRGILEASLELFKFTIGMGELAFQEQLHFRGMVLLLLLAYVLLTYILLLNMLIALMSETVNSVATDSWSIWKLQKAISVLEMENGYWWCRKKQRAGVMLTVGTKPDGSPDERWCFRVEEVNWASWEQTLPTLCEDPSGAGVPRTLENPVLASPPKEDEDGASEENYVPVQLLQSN

[4] = target: T3, Transient receptor potential cation channel subfamily V member 2 (Homo sapiens) (UniProt Q9Y5S1); assay: Agonist activity at ionomycin-stimulated TRPV2 (unknown origin) activation assessed as efficacy relative to control
T3 sequence (whole entry): T2 sequence (Q9Y5S1 whole entry)

[5] = target: T2, Transient receptor potential cation channel subfamily V member 2; assay: Agonist activity at ionomycin-stimulated TRPV2 (unknown origin) channel desensitization in presence of lysophosphatidylcholine
[6] = target: T4, Transient receptor potential cation channel subfamily V member 3 (Homo sapiens, UniProt Q8NET8); assay: Agonist activity at ionomycin-stimulated TRPV3 (unknown origin) activation
T4 sequence (Q8NET8 whole entry): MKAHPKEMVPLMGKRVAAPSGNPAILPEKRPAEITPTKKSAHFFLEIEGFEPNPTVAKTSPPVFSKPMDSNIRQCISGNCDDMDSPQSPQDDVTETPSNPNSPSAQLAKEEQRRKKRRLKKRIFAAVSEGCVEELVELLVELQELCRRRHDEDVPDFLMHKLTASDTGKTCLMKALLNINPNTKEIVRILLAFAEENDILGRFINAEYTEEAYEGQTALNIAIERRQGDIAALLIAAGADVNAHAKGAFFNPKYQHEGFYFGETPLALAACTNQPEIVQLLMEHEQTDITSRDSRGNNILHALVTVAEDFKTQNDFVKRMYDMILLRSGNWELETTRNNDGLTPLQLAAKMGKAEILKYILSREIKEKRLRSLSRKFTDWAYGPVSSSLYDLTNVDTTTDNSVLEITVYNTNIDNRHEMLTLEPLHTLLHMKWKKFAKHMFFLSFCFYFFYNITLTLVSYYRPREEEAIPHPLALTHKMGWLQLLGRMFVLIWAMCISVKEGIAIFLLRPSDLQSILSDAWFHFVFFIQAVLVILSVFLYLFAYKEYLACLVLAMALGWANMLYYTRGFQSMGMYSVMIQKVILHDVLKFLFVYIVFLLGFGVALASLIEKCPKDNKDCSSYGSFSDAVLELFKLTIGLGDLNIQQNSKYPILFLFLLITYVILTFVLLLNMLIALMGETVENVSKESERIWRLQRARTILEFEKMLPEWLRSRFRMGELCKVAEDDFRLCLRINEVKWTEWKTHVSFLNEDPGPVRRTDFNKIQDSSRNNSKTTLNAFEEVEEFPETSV

[7] = target: T5, Transient receptor potential cation channel subfamily V member 3 (Homo sapiens) (UniProt Q8NET8); assay: Agonist activity at ionomycin-stimulated TRPV3 (unknown origin) activation assessed as efficacy relative to control
T5 sequence (whole entry): T4 sequence (Q8NET8 whole entry)

[8] = target: T4, Transient receptor potential cation channel subfamily V member 3; assay: Agonist activity at ionomycin-stimulated TRPV3 (unknown origin) channel desensitization in presence of carvacrol
[9] = target: T6, Transient receptor potential cation channel subfamily V member 4 (Homo sapiens, UniProt Q9HBA0); assay: Agonist activity at ionomycin-stimulated TRPV4 (unknown origin) activation
[10] = target: T6, Transient receptor potential cation channel subfamily V member 4; assay: Agonist activity at ionomycin-stimulated TRPV4 (unknown origin) activation assessed as efficacy relative to control
[11] = target: T6, Transient receptor potential cation channel subfamily V member 4; assay: Agonist activity at ionomycin-stimulated TRPV4 (unknown origin) channel desensitization in presence of 4alphaPDD
[12] = target: T7, Transient receptor potential cation channel subfamily A member 1 (Homo sapiens, UniProt O75762); assay: Agonist activity at TRPA1 (unknown origin) activation
[13] = target: T7, Transient receptor potential cation channel subfamily A member 1; assay: Agonist activity at TRPA1 (unknown origin) activation assessed as efficacy relative to control; conditions: filed as agonist
[14] = target: T7, Transient receptor potential cation channel subfamily A member 1; assay: Agonist activity at TRPA1 (unknown origin) channel desensitization in presence of isothiocyanate
[15] = target: T7, Transient receptor potential cation channel subfamily A member 1; assay: Agonist activity at TRPA1 (unknown origin) channel desensitization in presence of icilin
[16] = target: T1, Transient receptor potential cation channel subfamily V member 1; assay: Agonist activity at ionomycin-stimulated TRPV1 (unknown origin) activation
[17] = target: Transient receptor potential cation channel subfamily M member 8 (Homo sapiens, UniProt Q7Z2W7); assay: Antagonist activity at TRPM8 (unknown origin) ion channel
Sequence of Transient receptor potential cation channel subfamily M member 8 (Q7Z2W7 whole entry): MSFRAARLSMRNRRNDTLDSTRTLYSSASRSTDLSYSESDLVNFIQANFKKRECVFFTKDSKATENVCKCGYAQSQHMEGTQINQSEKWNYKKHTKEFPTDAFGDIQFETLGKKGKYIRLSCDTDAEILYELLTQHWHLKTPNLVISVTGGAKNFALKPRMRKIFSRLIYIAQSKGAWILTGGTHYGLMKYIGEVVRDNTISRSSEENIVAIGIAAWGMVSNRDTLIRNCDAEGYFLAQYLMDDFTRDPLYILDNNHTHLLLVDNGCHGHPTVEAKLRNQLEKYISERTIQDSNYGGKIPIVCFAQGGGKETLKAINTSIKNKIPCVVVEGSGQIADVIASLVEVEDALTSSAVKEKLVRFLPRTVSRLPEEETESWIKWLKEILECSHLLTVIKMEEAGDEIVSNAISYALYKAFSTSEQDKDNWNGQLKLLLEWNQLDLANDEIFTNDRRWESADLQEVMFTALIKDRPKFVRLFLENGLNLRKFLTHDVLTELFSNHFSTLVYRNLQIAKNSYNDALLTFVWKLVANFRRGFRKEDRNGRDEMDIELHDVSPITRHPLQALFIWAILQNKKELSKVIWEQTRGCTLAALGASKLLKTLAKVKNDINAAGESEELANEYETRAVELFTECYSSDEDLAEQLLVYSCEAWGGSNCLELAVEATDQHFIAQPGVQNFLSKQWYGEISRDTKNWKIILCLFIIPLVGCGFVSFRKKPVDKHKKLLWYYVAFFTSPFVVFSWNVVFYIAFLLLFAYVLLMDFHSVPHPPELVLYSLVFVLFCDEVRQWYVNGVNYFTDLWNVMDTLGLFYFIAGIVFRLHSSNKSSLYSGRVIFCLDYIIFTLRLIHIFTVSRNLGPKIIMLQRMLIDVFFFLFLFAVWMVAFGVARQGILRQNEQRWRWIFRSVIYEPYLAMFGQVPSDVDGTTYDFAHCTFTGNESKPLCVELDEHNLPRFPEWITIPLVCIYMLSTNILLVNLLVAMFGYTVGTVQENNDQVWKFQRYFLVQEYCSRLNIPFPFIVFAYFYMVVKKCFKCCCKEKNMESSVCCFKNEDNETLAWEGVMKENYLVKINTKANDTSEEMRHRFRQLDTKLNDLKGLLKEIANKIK

T7 sequence (O75762 whole entry): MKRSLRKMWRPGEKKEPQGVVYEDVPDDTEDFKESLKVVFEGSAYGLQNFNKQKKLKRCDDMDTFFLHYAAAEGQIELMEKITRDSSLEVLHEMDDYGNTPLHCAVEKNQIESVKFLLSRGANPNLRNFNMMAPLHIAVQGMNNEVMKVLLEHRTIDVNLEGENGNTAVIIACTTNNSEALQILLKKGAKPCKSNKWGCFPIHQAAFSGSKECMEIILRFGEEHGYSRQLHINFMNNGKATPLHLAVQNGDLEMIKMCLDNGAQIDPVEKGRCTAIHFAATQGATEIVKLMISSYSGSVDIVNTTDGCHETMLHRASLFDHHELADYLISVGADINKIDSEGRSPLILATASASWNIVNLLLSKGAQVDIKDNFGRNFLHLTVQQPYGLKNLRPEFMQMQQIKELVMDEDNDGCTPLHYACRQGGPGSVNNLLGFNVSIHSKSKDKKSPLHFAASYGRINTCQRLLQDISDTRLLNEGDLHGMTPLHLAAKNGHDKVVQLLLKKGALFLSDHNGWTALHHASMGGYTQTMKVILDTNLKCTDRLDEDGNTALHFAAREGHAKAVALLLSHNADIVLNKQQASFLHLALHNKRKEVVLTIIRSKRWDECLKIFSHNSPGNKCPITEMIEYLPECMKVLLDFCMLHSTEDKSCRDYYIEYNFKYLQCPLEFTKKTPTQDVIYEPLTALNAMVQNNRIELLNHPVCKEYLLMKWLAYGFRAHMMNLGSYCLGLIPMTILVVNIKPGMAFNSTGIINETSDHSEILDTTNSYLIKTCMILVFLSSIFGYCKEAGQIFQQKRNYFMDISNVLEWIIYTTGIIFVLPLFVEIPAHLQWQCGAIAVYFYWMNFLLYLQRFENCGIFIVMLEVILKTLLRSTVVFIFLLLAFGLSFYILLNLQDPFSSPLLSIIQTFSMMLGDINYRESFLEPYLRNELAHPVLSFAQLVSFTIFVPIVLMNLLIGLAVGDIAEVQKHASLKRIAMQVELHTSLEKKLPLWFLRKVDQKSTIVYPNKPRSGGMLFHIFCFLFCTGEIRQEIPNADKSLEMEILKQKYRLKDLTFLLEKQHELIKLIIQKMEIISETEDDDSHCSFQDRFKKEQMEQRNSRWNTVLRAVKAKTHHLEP
T1 sequence (Q8NER1 whole entry): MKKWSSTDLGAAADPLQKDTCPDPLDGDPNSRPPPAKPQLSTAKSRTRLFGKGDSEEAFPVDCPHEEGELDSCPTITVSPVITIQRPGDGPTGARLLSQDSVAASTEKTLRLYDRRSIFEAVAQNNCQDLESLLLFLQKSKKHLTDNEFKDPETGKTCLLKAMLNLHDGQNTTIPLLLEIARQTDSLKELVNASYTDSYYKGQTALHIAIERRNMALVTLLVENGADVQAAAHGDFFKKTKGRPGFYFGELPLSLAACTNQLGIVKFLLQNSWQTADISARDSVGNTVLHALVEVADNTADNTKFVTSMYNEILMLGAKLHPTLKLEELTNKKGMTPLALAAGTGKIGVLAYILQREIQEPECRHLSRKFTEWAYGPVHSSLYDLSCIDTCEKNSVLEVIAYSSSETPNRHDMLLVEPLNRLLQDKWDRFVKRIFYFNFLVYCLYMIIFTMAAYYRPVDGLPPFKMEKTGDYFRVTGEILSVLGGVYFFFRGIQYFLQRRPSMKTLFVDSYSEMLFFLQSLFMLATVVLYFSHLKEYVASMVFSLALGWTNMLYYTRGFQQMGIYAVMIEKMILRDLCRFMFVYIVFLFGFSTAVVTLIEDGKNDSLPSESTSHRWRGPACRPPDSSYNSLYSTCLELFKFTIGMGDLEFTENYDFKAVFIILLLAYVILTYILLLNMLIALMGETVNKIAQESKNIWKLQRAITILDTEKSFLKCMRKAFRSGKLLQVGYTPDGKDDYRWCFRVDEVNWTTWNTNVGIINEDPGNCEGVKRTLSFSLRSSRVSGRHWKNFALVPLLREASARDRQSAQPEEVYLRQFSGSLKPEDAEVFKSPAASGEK
T6 sequence (Q9HBA0 whole entry): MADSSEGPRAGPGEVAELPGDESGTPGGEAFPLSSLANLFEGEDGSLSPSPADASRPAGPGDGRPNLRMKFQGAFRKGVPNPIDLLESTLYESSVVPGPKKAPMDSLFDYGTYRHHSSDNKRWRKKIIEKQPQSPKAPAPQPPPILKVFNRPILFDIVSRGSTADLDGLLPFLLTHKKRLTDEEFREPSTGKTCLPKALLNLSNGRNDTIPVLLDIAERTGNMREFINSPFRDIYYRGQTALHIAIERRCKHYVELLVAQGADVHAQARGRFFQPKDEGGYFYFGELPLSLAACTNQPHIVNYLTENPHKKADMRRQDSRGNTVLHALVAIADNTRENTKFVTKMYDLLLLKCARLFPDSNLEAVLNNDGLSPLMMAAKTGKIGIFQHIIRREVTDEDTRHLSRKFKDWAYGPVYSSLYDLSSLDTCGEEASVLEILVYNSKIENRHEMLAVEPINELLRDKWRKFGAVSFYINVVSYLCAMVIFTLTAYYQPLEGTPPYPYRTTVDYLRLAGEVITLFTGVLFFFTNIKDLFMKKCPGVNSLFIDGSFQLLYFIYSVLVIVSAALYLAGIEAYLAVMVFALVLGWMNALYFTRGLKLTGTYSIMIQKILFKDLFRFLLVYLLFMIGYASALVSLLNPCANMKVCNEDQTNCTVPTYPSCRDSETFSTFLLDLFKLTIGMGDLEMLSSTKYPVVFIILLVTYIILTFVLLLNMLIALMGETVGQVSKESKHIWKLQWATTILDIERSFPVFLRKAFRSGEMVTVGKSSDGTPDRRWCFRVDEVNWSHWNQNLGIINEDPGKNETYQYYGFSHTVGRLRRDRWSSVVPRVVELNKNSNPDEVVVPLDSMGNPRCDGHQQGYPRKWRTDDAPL

CCCc1cc(O)c2c(c1)OC(C)(C)c1ccc(C)cc1-2
Efficacy ([1]; filed as agonist): 50%
IC50 [2]: 11.9 µM
EC50 [3]: 3.1 µM
Efficacy ([4]; filed as agonist): 79%
IC50 [5]: 2.2 µM
EC50 [6]: 3.5 µM
Efficacy ([7]; filed as agonist): 78%
IC50 [8]: 1.6 µM
EC50 [9]: 7.3 µM
Efficacy [10]: 37%
IC50 [11]: 4 µM
EC50 [12]: 0.2 µM
Efficacy [13]: 123%
IC50 [14]: 0.17 µM
IC50 [15]: 0.5 µM

CCCCCc1cc(O)c2c(c1)OC(C)(CCC=C(C)C)C=C2 (stereo not given) [CANNABICHROMENE]
EC50 [16]: 24.2 µM
Efficacy [1]: < 10%
IC50 [2]: > 50 µM
Efficacy [4]: < 10%
IC50 [5]: 6.5 µM
EC50 [6]: 1.9 µM
Efficacy [7]: 20%
IC50 [8]: 201 µM
EC50 [9]: 0.6 µM
Efficacy [10]: 23%
IC50 [11]: 9.9 µM
EC50 [12]: 0.09 µM
Efficacy [13]: 119%
IC50 [14]: 0.37 µM
IC50 [17]: 40.7 µM
